Earlier results in US20170056332A1, “HEMORRHOID PREPARATION AND SHEETS” (C.B. Fleet Company, Incorporated, priority 2015, published 2017).

Settings: in the presence of menthol; Obata et al. 1990

## CC1CCC(C(C)C)C(O)C1 (stereo not shown) [Menthol]
  percutaneous absorption of hydrophilic diclofenac sodium: substantially enhanced
